# Results as given in patent US20040039014A1, “Methods and compounds for treating depression and other disorders” (NPS Pharmaceuticals, Inc., priority 1998, published 2004).
# pIC50, pKi: −log10 of the molar value. Structures can show the parent of a compound that is named as a salt. Marks after values point to notes of the source that are not given here.
# How the values were obtained:
# male Sprague-Dawley rats = assay: Rat forced-swim test (FST); assay type: in vivo; conditions: Table VI, 60 minutes prior to testing, saline control 47.9
# Protocol: (§1) For the mouse and rat forced-swim tests, male pathogen-free NIH-Swiss mice (Harlan Sprague-Dawley) weighing between 22-25 g, and male pathogen-free Sprague-Dawley rats (Harlan Sprague-Dawley) weighing between 320-350 g were used. Animals were removed from the housing room to the testing area in their own cages and allowed to adapt to the new environment for at least 1 hour before testing. Mice were administered either drug (imipramine, 10 mg/kg i.p.; or Compound 60, various p.o or i.p. doses) or saline. Thirty minutes to 24 hours later, mice were placed individually in cylinders (diameter: 10 cm; height: 25 cm) filled with 6 cm of water (22-25° C.) for 6 minutes. The duration of immobility during the last 4 minutes of the 6 minute test was scored. A mouse was recorded as immobile when floating motionless or making only those movements necessary to keep its head above water. Results were expressed as the duration of immobility (seconds).
# The rat forced-swim test was conducted over two days. On treatment Day 1, rats were placed individually in cylinders (diameter: 18 cm; height: 40 cm) filled with water (22-25° C.) to a depth of 15 cm for 15 minutes. The duration of immobility during the first 5 minutes was scored. After testing, the rats were dried with paper towels and placed in holding cages. Five minutes after removal from the testing cylinders, animals received either drug (imipramine, 10 mg/kg i.p.; or Compound 60, various p.o. doses) or saline (p.o.). Ten minutes later, the rats were returned to their home cages. […] The duration of immobility during the first 5 minute period was recorded. A rat was recorded as immobile when floating motionless or making only those movements necessary to keep its head above water. […]
# [1] = target: T1, norepinephrine transporter site (Rattus norvegicus, UniProt Q63380); assay: Norepinephrine reuptake inhibition assay ([3H]nisoxetine binding, rat forebrain membranes); conditions: Table I; read-out: NE Uptake Ki
# T1 construct: tissue NovaScreen (performed the assay); host or cells: rat forebrain membranes
# T1 sequence (Q63380 1-617): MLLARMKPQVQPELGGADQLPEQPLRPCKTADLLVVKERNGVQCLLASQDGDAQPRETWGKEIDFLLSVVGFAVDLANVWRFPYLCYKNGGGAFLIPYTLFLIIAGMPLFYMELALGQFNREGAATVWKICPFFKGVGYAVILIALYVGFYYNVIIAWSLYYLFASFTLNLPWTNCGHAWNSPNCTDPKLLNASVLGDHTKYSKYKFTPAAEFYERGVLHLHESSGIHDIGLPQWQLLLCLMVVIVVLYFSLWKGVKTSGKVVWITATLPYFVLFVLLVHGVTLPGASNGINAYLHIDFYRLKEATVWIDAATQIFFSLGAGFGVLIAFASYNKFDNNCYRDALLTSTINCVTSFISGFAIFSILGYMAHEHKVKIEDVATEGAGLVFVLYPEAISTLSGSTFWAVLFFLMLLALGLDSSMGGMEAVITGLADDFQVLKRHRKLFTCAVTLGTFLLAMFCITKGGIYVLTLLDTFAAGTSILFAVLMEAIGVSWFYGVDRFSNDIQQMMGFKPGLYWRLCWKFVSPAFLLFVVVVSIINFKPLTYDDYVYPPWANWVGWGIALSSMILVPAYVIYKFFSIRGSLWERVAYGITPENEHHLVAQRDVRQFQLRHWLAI
# Protocol: Monoamine Transporter Minding Assays
# Monoamine transporter binding assays (reuptake inhibition assays) were performed by NovaScreen using standard radioligand binding assays. The transporter binding assays are described briefly below:
# Norepinephrine Reuptake Inhibition Assay
# Reactions were terminated by rapid vacuum filtration onto glass fiber filters.
# male C57BL/6 mice = assay: Mouse tail-suspension test (TST) with Compound 60; assay type: in vivo; conditions: for Mean duration of immobility: Table VII, 5 mg/kg p.o. single dose, saline control 154.9
# Protocol: For the mouse tail-suspension test with Compound 60, male pathogen-free C57BL/6 mice (Harlan Sprague-Dawley) weighing between 22-25 g were used. Animals were removed from the housing room to the testing area in their own cages and allowed to adapt to the new environment for at least 1 hour before testing. Mice were administered either drug (imipramine, 15 mg/kg i.p.; or Compound 60, various p.o. doses) or saline. Thirty minutes to 24 hours later, the mice were suspended on the edge of a shelf 80 cm above the floor in the testing room by adhesive tape placed approximately 1 cm from the tip of the tail. The duration of immobility was recorded during a test period of 5 minutes. Mice were considered immobile only when they hung passively and completely motionless. Results were expressed as the duration of immobility (sec).
# NMDA receptor = target: T2, NMDA receptor; assay: [3H]MK-801 binding assay (rat cortex synaptic plasma membranes); conditions: read-out: [3H]MK-801 data IC50, Table I
# T2 construct: rat cortex membranes
# Protocol: Synaptic plasma membranes (SPMs) from rat cortex were prepared as follows. Isolated cerebral cortices from male and female rats were purchased from Pel-Freez (Rogers, Ariz.) in bulk, and stored at −80° C. The cortices from 25 rats were thawed and pooled. […] The resulting homogenates were centrifuged for 10 min at 1,000×g in a T865 rotor, UltraPro80 Sorvall Centrifuge. The supernatant was removed and subsequently centrifuged at 30,000×g for 30 min. […] Membranes were washed by re-suspension in 500 ml of 5 mM K-EDTA (pH 7.0), incubated at 32° C. for 30 min with stirring, and centrifuged at 100,000×g for 30 min. The final pellet was resuspended in 60 ml of […] K-EDTA (pH 7.0) and stored in aliquots at −80° C. The extensive washing procedure utilized in this assay was designed to minimize the concentrations of glutamate and glycine (co-agonists at the NMDA receptor-ionophore complex) present in the membrane preparation.
# On the day of assay, aliquots of SPM were thawed and resuspended in 75 vols of 5 mM K-EDTA, pH 7.0. SPM were centrifuged at 100,000×g for 30 min at 4° C.
# The SPM pellet was resuspended in assay buffer (30 mM EPPS, 1 mM K-EDTA, pH 7.0) by polytron. […] Binding was started by the addition of the tissue homogenate. The assay was terminated by the addition of 4 ml ice-cold buffer, followed by filtration over glass-fiber filters (Schleicher & Schuell No. 30) on a Millipore 12-well filtration manifold. Filters were washed with another 3 ×4 ml ice-cold buffer (pH 7.0). Radioactivity on the filters was measured using Fisherbrand Scinti-Safe scintillation cocktail. Samples were shaken for 45-60 min on a shaker platform to solubilize the radioactivity. Counting for ^3H was performed in a Beckman 6000IC LS Scintillation Counter for 4 min per sample.
# male NIH-Swiss mice = assay: Mouse forced-swim test (FST); assay type: in vivo
# Protocol: as §1
structure (smiles),measurement,setting,value
"CNCCC(c1cccc(F)c1)c1cccc(F)c1 [Compound 60, N-Methyl-3.,3-bis(3-fluorophenyl)propylamine hydrochloride]",Mean Change in the Duration of Immobility (Day 2 minus Day 1),male Sprague-Dawley rats; 1.25 mg/kg oral,29.7 s
same,Mean Change in the Duration of Immobility (Day 2 minus Day 1),male Sprague-Dawley rats; 2.5 mg/kg oral,−24.8* sec
same,Mean Change in the Duration of Immobility (Day 2 minus Day 1),male Sprague-Dawley rats; 5 mg/kg oral,−28.8* sec
same,pKi,[1],< 5.00
same,Duration of Immobility,"male C57BL/6 mice; Table IX (experiment #2), 0.625 mg/kg single oral dose 60 minutes prior to testing, saline control 149.1",143.3 s
same,Duration of Immobility,"male C57BL/6 mice; Table IX (experiment #2), 1.25 mg/kg single oral dose 60 minutes prior to testing, saline control 149.1",125.8 s
same,Duration of Immobility,"male C57BL/6 mice; Table IX (experiment #2), 2.5 mg/kg single oral dose 60 minutes prior to testing, saline control 149.1",69.6* sec
same,Duration of Immobility,"male C57BL/6 mice; Table IX (experiment #2), 5 mg/kg single oral dose 60 minutes prior to testing, saline control 149.1",69.5* sec
same,Duration of Immobility,"male C57BL/6 mice; Table IX (experiment #2), 10 mg/kg single oral dose 60 minutes prior to testing, saline control 149.1",15.6* sec
same,Mean duration of immobility,male C57BL/6 mice; time post-dose 0.5,84.9* sec
same,Mean duration of immobility,male C57BL/6 mice; time post-dose 1,74.7* sec
same,Mean duration of immobility,male C57BL/6 mice; time post-dose 2,93.0* sec
same,Mean duration of immobility,male C57BL/6 mice; time post-dose 4,109.7 s
same,Mean duration of immobility,male C57BL/6 mice; time post-dose 6,125.5 s
same,Mean duration of immobility,male C57BL/6 mice; time post-dose 24,177.7 s
same,Duration of Immobility,"male C57BL/6 mice; Table VIII (experiment #1), 2.5 mg/kg single oral dose 60 minutes prior to testing, saline control 210.1",130.7* sec
same,Duration of Immobility,"male C57BL/6 mice; Table VIII (experiment #1), 5 mg/kg single oral dose 60 minutes prior to testing, saline control 210.1",123.5* sec
same,Duration of Immobility,"male C57BL/6 mice; Table VIII (experiment #1), 10 mg/kg single oral dose 60 minutes prior to testing, saline control 210.1",47.8* sec
same,time of peak effect (reduction in the duration of immobility) post-dosing,"male C57BL/6 mice; mouse TST, single 5-mg/kg oral dose",60 min
same,pIC50,NMDA receptor,6.19
same,Mean duration of immobility,"male NIH-Swiss mice; Table III, 5 mg/kg p.o. single dose, time post-dose 0.5, saline control 128.2",96.1 s
same,Mean duration of immobility,"male NIH-Swiss mice; Table III, 5 mg/kg p.o. single dose, time post-dose 1, saline control 128.2",38.8* sec
same,Mean duration of immobility,"male NIH-Swiss mice; Table III, 5 mg/kg p.o. single dose, time post-dose 2, saline control 128.2",66.2* sec
same,Mean duration of immobility,"male NIH-Swiss mice; Table III, 5 mg/kg p.o. single dose, time post-dose 4, saline control 128.2",66.9* sec
same,Mean duration of immobility,"male NIH-Swiss mice; Table III, 5 mg/kg p.o. single dose, time post-dose 6, saline control 128.2",76.8* sec
same,Mean duration of immobility,"male NIH-Swiss mice; Table III, 5 mg/kg p.o. single dose, time post-dose 24, saline control 128.2",124.8 s
same,Mean duration of immobility,"male NIH-Swiss mice; Table IV, 0.625 mg/kg single oral dose 60 minutes prior to testing, saline control 129.7",153.3 s
same,Mean duration of immobility,"male NIH-Swiss mice; Table IV, 1.25 mg/kg single oral dose 60 minutes prior to testing, saline control 129.7",72.3* sec
same,Mean duration of immobility,"male NIH-Swiss mice; Table IV, 2.5 mg/kg single oral dose 60 minutes prior to testing, saline control 129.7",64.5* sec
same,Mean duration of immobility,"male NIH-Swiss mice; Table IV, 5 mg/kg single oral dose 60 minutes prior to testing, saline control 129.7",56.6* sec
same,Mean duration of immobility,"male NIH-Swiss mice; Table IV, 10 mg/kg single oral dose 60 minutes prior to testing, saline control 129.7",68.7* sec
same,Mean duration of immobility,"male NIH-Swiss mice; Table V, 0.625 mg/kg single i.p. dose 30 minutes prior to testing, saline control 137.8",139.5 s
same,Mean duration of immobility,"male NIH-Swiss mice; Table V, 1.25 mg/kg single i.p. dose 30 minutes prior to testing, saline control 137.8",85.6* sec
same,Mean duration of immobility,"male NIH-Swiss mice; Table V, 2.5 mg/kg single i.p. dose 30 minutes prior to testing, saline control 137.8",68.5* sec
same,Mean duration of immobility,"male NIH-Swiss mice; Table V, 5 mg/kg single i.p. dose 30 minutes prior to testing, saline control 137.8",89.6* sec
same,Mean duration of immobility,"male NIH-Swiss mice; Table V, 10 mg/kg single i.p. dose 30 minutes prior to testing, saline control 137.8",106.1 s
same,time of peak effect (reduction in the duration of immobility) post-dosing,"male NIH-Swiss mice; mouse FST, single dose 5 mg/kg p.o.",60 min
